Reference: ChEMBL document CHEMBL3868639, “Great Therapeutic Potential of Peptidylarginine Deiminase 4 (PAD4) Inhibitors: Treatment of Rheumatoid Arthritis, Epigenetic Tools, Regulation of Pluripotency in Stem Cells, and More” (ACS Med Chem Lett, 2017)

Target: Protein-arginine deiminase type-2 (Homo sapiens, UniProt Q9Y2J8)
Assay: Inhibition of N-terminal 6His/FLAG-tagged recombinant human PAD2 (1 to 665 residues) expressed in baculovirus infected sf9 cells using N-a-benzoyl-L-arginine ethyl ester as substrate preincubated for 30 mins followed by substrate addition after 90 mins by DTT-based fluorescence assay

Protein-arginine deiminase type-2, sequence (Q9Y2J8 whole entry, the tested form may be a part): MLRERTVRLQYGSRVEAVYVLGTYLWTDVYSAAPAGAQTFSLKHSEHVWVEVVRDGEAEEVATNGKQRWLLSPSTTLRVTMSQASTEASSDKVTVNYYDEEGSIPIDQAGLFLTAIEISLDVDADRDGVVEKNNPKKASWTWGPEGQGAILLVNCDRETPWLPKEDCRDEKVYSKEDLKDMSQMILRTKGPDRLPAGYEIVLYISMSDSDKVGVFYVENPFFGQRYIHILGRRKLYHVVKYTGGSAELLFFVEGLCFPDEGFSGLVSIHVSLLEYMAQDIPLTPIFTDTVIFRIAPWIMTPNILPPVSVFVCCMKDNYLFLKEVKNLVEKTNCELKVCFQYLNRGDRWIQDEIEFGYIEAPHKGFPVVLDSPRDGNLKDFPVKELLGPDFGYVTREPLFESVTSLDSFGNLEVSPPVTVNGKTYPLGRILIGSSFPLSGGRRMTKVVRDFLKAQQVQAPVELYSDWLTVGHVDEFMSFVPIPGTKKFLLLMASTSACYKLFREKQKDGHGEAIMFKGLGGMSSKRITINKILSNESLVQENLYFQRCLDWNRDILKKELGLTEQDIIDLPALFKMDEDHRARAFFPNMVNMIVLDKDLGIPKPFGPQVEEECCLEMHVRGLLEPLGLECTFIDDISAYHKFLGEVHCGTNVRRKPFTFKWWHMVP

IC50 [µM]	Compound
10 to 79.4	COc1cc(C(=O)N2CCC[C@@H](N)C2)cc2nc(-c3cc4ccccc4n3CC(F)(F)F)n(C)c12
10 to 79.4	Cn1c(-c2cc3ccccc3n2CC2CC2)nc2cc(C(=O)N3CCC[C@@H](N)C3)ccc21
10 to 79.4	COc1cc(C(=O)N2CCC[C@@H](N)C2)cc2nc(-c3cc4ccccc4n3CC3CC3)n(C)c12
10 to 79.4	COc1cc(C(=O)N2CC[C@@H](O)[C@@H](N)C2)cc2nc(-c3cc4ccccc4n3CC(F)(F)F)n(C)c12
